Reference: US10723765B2, “Beta-hairpin peptidomimetics as selective elastase inhibitors” (POLYPHOR AG, priority 2013, dated 2020)
Like-named read-outs stand apart in the source and are kept apart here. Non-standard residues stand in square brackets, D forms with d. Residues, ends and D or L forms follow the SMILES beside them. *: point of attachment. Gly(octyl) = CCCCCCCC[C@H](N)C(=O)O; hTyr = N[C@@H](CCc1ccc(O)cc1)C(=O)O; AllylGly = C=CC[C@H](N)C(=O)O; NHPhenethyl = c1ccc(CCN*)cc1; hLeu = CC(C)CC[C@H](N)C(=O)O

How the values were obtained:
Assay type in all cases: biochemical
human proteinase 3 = target: T1, human proteinase 3 (Homo sapiens, UniProt P24158); assay: Inhibition of human proteinase 3 (Boc-Ala-Ala-Nva-SBzl); settings: for hNE/hPr3 selectivity: ratio of hPr3 IC50 to hNE IC50
T1 construct: purchased Elastin Products Company, USA
T1 sequence (P24158 28-248): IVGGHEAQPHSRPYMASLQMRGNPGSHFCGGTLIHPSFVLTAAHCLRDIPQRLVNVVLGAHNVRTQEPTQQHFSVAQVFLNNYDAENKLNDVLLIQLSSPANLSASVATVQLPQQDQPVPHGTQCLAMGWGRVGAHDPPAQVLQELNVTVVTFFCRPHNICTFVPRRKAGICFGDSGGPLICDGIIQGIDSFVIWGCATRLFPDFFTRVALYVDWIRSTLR
Protocol: 2.4. Inhibition of Human Proteinase 3
The inactivation of human proteinase 3 (Elastin Products Company, USA) by the peptides of the invention using synthetic tripeptidic substrate Boc-Ala-Ala-Nva-SBzl (Elastin Products Company, USA) was determined as follows:
(§1) The above substrate (1 mM), 4,4′-dithiodipyridine (250 μM) and human proteinase 3 (10 nM) were incubated at 37° C. with serial dilutions of the peptides (0.5% DMSO final) in assay buffer (50 mM Tris, pH7.4, 150 mM NaCl, 0.01% Tween20). The reaction process was followed by monitoring the change in absorbance at 340 nm for 30 minutes. Control assays with the same assay set-up as above, but without peptide, ran linearly. The dose-response data were fitted to the 4-parameter Hill equation providing the IC50 value using Graphpad (Prism 5).

[1] = target: T2, human neutrophil elastase (Homo sapiens, UniProt P08246); assay: Inhibition of human neutrophil elastase (MeOSuc-AAPV-pNA hydrolysis)
T2 construct: purchased Serva Electrophoresis, Germany
T2 sequence (P08246 30-267): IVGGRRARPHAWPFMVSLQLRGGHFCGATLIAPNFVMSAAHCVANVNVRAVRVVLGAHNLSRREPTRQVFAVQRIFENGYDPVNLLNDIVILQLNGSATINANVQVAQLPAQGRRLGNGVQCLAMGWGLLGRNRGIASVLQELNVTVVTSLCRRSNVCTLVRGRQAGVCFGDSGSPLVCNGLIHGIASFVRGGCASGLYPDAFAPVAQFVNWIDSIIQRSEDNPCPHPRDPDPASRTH
Protocol: 2.2. Inhibition of Human Neutrophil Elastase
The ability of the peptides of the invention to inhibit the hydrolysis activity of human neutrophil elastase (Serva Electrophoresis, Germany) using the synthetic tetrapeptidic substrate MeOSuc-AAPV-pNA (Bachem, Switzerland) was determined as follows:
as §1, with “(0.3 mM)” for “(1 mM), 4,4′-dithiodipyridine (250 μM)”, “neutrophil elastase” for “proteinase 3”, “(1%” for “(0.5%”, “pH 8, 300” for “pH7.4, 150”, “release of pNA” for “reaction process”, “405” for “340”

[2] = target: T3, porcine pancreatic elastase (Sus scrofa, UniProt P00772); assay: Inhibition of porcine pancreatic elastase (MeOSuc-AAA-pNA hydrolysis); settings: for hNE/PPE selectivity: ratio of PPE IC50 to hNE IC50
T3 construct: purchased Sigma, USA
T3 sequence (P00772 27-266): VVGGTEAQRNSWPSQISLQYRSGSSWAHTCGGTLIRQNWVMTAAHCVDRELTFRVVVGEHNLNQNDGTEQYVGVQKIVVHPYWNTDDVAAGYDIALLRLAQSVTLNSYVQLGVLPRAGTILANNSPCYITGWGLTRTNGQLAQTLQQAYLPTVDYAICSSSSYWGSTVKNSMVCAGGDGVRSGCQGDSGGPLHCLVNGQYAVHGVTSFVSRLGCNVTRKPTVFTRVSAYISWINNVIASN
Protocol: 2.3. Inhibition of Porcine Pancreatic Elastase
The ability of the peptides of the invention to inhibit the hydrolysis activity of porcine pancreatic elastase (Sigma, USA) using the synthetic tripeptidic substrate MeOSuc-AAA-pNA (Bachem, Switzerland) was determined as follows:
as §1, with “mM)” for “mM), 4,4′-dithiodipyridine (250 μM)”, “porcine pancreatic elastase (15” for “proteinase 3 (10”, “pH8, 100” for “pH7.4, 150”, “release of pNA” for “reaction process”, “405” for “340”

[3] = 10 nM enzyme, 1 mM substrate, 37° C., pH7.4, read-out: Human proteinase 3 (hPr3) IC50
[4] = 10 nM enzyme, 0.3 mM substrate, 37° C., pH 8, read-out: Human neutrophil elastase (hNE) IC50
[5] = 15 nM enzyme, 1 mM substrate, 37° C., pH8, read-out: Porcine pancreatic elastase (PPE) IC50

Row | IC50 (human proteinase 3; [3]) [nM] | hNE/hPr3 selectivity (human proteinase 3) | IC50 [1, 4] [nM] | IC50 [2, 5] [nM] | hNE/PPE selectivity [2] | Structure (SMILES) | IC50 (human proteinase 3) [nM] | IC50 [1] [nM] | IC50 [2] [nM]
1 | 80200 | 5383 | 14.9 | 59000 | 3960 | C=CC[C@@H]1NC(=O)[C@H]([C@@H](C)O)NC(=O)[C@H](CCC(=O)O)NC(=O)[C@H](CCCNC(=N)N)NC(=O)[C@@H]2CCCN2C(=O)[C@H]2CCCN2C(=O)[C@H]([C@@H](C)O)NC(=O)[C@H](CCCCN)NC(=O)[C@H](CCC(N)=O)NC(=O)[C@@H]2CCCN2C(=O)[C@@H]2CCCN2C(=O)[C@H]([C@@H](C)CC)NC(=O)[C@H](CO)NC1=O [Example 7, Cyclo(-Arg-Glu-Thr-AllylGly-Ser-Ile-Pro-Pro-Gln-Lys-Thr-^DPro-Pro-)] (cyclo(RET[AllylGly]SIPPQKT[dP]P)) |  |  | 
2 | > 100000 | >3268 | 30.6 | > 100000 | >3268 | CC[C@H](C)[C@@H]1NC(=O)[C@H](CO)NC(=O)[C@H](C)NC(=O)[C@H]([C@@H](C)O)NC(=O)[C@H](CCC(=O)O)NC(=O)[C@H](CCCNC(=N)N)NC(=O)[C@@H]2CCCN2C(=O)[C@H]2CCCN2C(=O)[C@H]([C@@H](C)O)NC(=O)[C@H](CCCCN)NC(=O)[C@H](Cc2ccc(O)cc2)NC(=O)[C@@H]2CCCN2C(=O)[C@@H]2CCCN2C1=O [Example 13, Cyclo(-Arg-Glu-Thr-Ala-Ser-Ile-Pro-Pro-Tyr-Lys-Thr-^DPro-Pro-)] (cyclo(RETASIPPYKT[dP]P)) |  |  | 
3 | > 100000 | >3788 | 26.4 | > 100000 | >3788 | CC[C@H](C)[C@@H]1NC(=O)[C@H](CO)NC(=O)[C@H](C)NC(=O)[C@H]([C@@H](C)O)NC(=O)[C@H](C(C)C)NC(=O)[C@H](CCCNC(=N)N)NC(=O)[C@@H]2CCCN2C(=O)[C@H]2CCCN2C(=O)[C@H]([C@@H](C)O)NC(=O)[C@H](CCCCN)NC(=O)[C@H](CCC(N)=O)NC(=O)[C@@H]2CCCN2C(=O)[C@@H]2CCCN2C1=O [Example 16, Cyclo(-Arg-Val-Thr-Ala-Ser-Ile-Pro-Pro-Gln-Lys-Thr-^DPro-Pro-)] (cyclo(RVTASIPPQKT[dP]P)) |  |  | 
4 | 83900 | 5378 | 15.6 | 66400 | 4256 | CC[C@H](C)[C@@H]1NC(=O)[C@H](CO)NC(=O)[C@H](C)NC(=O)[C@H]([C@@H](C)O)NC(=O)[C@H](CCc2ccc(O)cc2)NC(=O)[C@H](CCCNC(=N)N)NC(=O)[C@@H]2CCCN2C(=O)[C@H]2CCCN2C(=O)[C@H]([C@@H](C)O)NC(=O)[C@H](CCCCN)NC(=O)[C@H](CCC(N)=O)NC(=O)[C@@H]2CCCN2C(=O)[C@@H]2CCCN2C1=O [Example 17, Cyclo(-Arg-hTyr-Thr-Ala-Ser-Ile-Pro-Pro-Gln-Lys-Thr-^DPro-Pro-)] (cyclo(R[hTyr]TASIPPQKT[dP]P)) |  |  | 
5 | 1520 | 282 | 5.4 | 530 | 98 | CCCCCCCC[C@@H]1NC(=O)[C@@H]2CCCN2C(=O)[C@H]2CCCN2C(=O)[C@H]([C@@H](C)O)NC(=O)[C@H](CCCCN)NC(=O)[C@H](Cc2ccc(O)cc2)NC(=O)[C@@H]2CCCN2C(=O)[C@@H]2CCCN2C(=O)[C@H]([C@@H](C)CC)NC(=O)[C@H](CO)NC(=O)[C@H](C)NC(=O)[C@H]([C@@H](C)O)NC(=O)[C@H](CCC(=O)O)NC1=O [Example 2, Cyclo(-OctGly-Glu-Thr-Ala-Ser-Ile-Pro-Pro-Tyr-Lys-Thr-^DPro-Pro-)] (cyclo([Gly(octyl)]ETASIPPYKT[dP]P)) |  |  | 
6 | 1800 | 261 | 6.9 | 7200 | 1043 | CC[C@H](C)[C@@H]1NC(=O)[C@H](CO)NC(=O)[C@H](C)NC(=O)[C@H]([C@@H](C)O)NC(=O)[C@H](C(C)C)NC(=O)[C@H](CCCNC(=N)N)NC(=O)[C@@H]2CCCN2C(=O)[C@H]2CCCN2C(=O)[C@H](Cc2ccc(O)cc2)NC(=O)[C@H](CCCCN)NC(=O)[C@H](CCC(N)=O)NC(=O)[C@@H]2CCCN2C(=O)[C@@H]2CCCN2C1=O [Example 18, Cyclo(-Arg-Val-Thr-Ala-Ser-Ile-Pro-Pro-Gln-Lys-Tyr-^DPro-Pro-)] (cyclo(RVTASIPPQKY[dP]P)) |  |  | 
7 | > 100000 | >3333 | 30 | > 100000 | >3333 | CC[C@H](C)[C@@H]1NC(=O)[C@H](CO)NC(=O)[C@H](C)NC(=O)[C@H]([C@@H](C)O)NC(=O)[C@H](CCC(=O)O)NC(=O)[C@H](CCCNC(=N)N)NC(=O)[C@@H]2CCCN2C(=O)[C@H]2CCCN2C(=O)[C@H](CCC(C)C)NC(=O)[C@H](CCCCN)NC(=O)[C@H](CCC(N)=O)NC(=O)[C@@H]2CCCN2C(=O)[C@@H]2CCCN2C1=O [Example 10, Cyclo(-Arg-Glu-Thr-Ala-Ser-Ile-Pro-Pro-Gln-Lys-hLeu-^DPro-Pro-)] (cyclo(RETASIPPQK[hLeu][dP]P)) |  |  | 
8 | 88100 | 5372 | 16.4 | 45200 | 2756 | CC[C@H](C)[C@@H]1NC(=O)[C@H](CO)NC(=O)[C@H](C)NC(=O)[C@H]([C@@H](C)O)NC(=O)[C@H](CCC(=O)O)NC(=O)[C@H](CCCNC(=N)N)NC(=O)[C@@H]2CCCN2C(=O)[C@H]2CCCN2C(=O)[C@H](CO)NC(=O)[C@H](CCCCN)NC(=O)[C@H](Cc2ccc(O)cc2)NC(=O)[C@@H]2CCCN2C(=O)[C@@H]2CCCN2C1=O [Example 8, Cyclo(-Arg-Glu-Thr-Ala-Ser-Ile-Pro-Pro-Tyr-Lys-Ser-^DPro-Pro-)] (cyclo(RETASIPPYKS[dP]P)) |  |  | 
9 | 1810 | 342 | 5.3 | 1550 | 292 | CCCCCCCC[C@@H]1NC(=O)[C@@H]2CCCN2C(=O)[C@H]2CCCN2C(=O)[C@H](CC(N)=O)NC(=O)[C@H](CCCCN)NC(=O)[C@H](CCC(N)=O)NC(=O)[C@@H]2CCCN2C(=O)[C@@H]2CCCN2C(=O)[C@H]([C@@H](C)CC)NC(=O)[C@H](CO)NC(=O)[C@H](C)NC(=O)[C@H]([C@@H](C)O)NC(=O)[C@H](CCC(=O)O)NC1=O [Example 1, Cyclo(-OctGly-Glu-Thr-Ala-Ser-Ile-Pro-Pro-Gln-Lys-Asn-^DPro-Pro-)] (cyclo([Gly(octyl)]ETASIPPQKN[dP]P)) |  |  | 

Row | Structure (SMILES) | IC50 (human proteinase 3; [3]) [nM] | hNE/hPr3 selectivity (human proteinase 3) | IC50 [1, 4] [nM] | IC50 [2, 5] [nM] | hNE/PPE selectivity [2] | IC50 (human proteinase 3) [nM] | IC50 [1] [nM] | IC50 [2] [nM]
10 | CC[C@H](C)[C@@H]1NC(=O)[C@H](CO)NC(=O)[C@H](C)NC(=O)[C@H]([C@@H](C)O)NC(=O)[C@H](CCC(=O)O)NC(=O)[C@H](CCC(=O)NCCc2ccccc2)NC(=O)[C@@H]2CCCN2C(=O)[C@H]2CCCN2C(=O)[C@H](Cc2ccc(O)cc2)NC(=O)[C@H](CCCCN)NC(=O)[C@H](CCC(N)=O)NC(=O)[C@@H]2CCCN2C(=O)[C@@H]2CCCN2C1=O [Example 15, Cyclo(-Glu(Phenethyl)-Glu-Thr-Ala-Ser-Ile-Pro-Pro-Gln-Lys-Tyr-^DPro-Pro-)] (cyclo(E(NHPhenethyl)ETASIPPQKY[dP]P)) |  | 360 |  |  | 87 | 6690 | 18.6 | 1620
